The assay can be described thus: Inhibition of rilpivirine-resistant HIV1 NL4-3 reverse transcriptase E138K mutant infected in human TZM-b1 cells after 2 days by bright Glo-luciferase reporter gene assay.

As for `Cc1cc(/C=C/C#N)cc(C)c1Oc1cc(Nc2ccc(C#N)cc2)c(N)cc1C(=O)NCCCl`, the EC50 (as a rule, the concentration at which the effect is half-maximal) turned out to be 8.5 nM. In other words, the single-digit nanomolar range.
To `Cc1cc(/C=C/C#N)cc(C)c1Oc1cc(Nc2ccc(C#N)cc2)c(N)cc1C(=O)OCCC#N` belongs 2.9 nM.
`Cc1cc(/C=C/C#N)cc(C)c1Oc1cc(Nc2ccc(C#N)cc2)c(N)cc1C(=O)N1CC1` yielded an EC50 of 8.7 nM.
To `COCCOC(=O)c1cc(N)c(Nc2ccc(C#N)cc2)cc1Oc1c(C)cc(/C=C/C#N)cc1C` belongs 4.6 nM.
The figure for `Cc1cc(/C=C/C#N)cc(C)c1Oc1cc(Nc2ccc(C#N)cc2)c(N)cc1C(=O)NCCCO` is 23 nM.

For the origin of these results see BindingDB's records for doi:10.1016/j.bmcl.2017.04.068 (Beijing Institute of Pharmacology & Toxicology, 2017).
